In paper PMC4824854, “Predictions of Cleavability of Calpain Proteolysis by Quantitative Structure-Activity Relationship Analysis Using Newly Determined Cleavage Sites and Catalytic Efficiencies of an Oligopeptide Array” (Molecular & Cellular Proteomics : MCP, 2016):
“Also recorded” adds a separate entry of the source.

T1: C1 (Merck Millipore #208712) (Sus scrofa, UniProt P35750)
T1 construct: purchased Merck Millipore 208712
T1 sequence (P35750 1-714): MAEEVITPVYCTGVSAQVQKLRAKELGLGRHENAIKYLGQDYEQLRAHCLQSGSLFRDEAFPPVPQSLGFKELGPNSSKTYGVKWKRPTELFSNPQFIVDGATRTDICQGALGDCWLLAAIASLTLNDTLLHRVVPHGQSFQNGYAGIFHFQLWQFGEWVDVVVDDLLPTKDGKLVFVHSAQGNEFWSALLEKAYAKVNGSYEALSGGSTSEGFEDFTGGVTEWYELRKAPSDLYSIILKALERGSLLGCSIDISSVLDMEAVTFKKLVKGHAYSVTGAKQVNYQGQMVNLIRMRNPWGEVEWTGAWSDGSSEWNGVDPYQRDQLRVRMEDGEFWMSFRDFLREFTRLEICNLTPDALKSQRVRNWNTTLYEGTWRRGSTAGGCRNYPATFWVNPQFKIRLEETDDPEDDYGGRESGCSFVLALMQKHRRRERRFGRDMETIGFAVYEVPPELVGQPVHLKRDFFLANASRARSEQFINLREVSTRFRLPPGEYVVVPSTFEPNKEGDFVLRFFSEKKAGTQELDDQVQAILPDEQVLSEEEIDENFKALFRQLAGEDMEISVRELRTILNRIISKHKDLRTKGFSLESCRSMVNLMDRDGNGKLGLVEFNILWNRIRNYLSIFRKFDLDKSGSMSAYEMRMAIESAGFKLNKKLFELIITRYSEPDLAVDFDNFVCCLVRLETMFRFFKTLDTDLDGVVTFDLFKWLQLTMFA
T1 sequence (P04574 1-266 partner): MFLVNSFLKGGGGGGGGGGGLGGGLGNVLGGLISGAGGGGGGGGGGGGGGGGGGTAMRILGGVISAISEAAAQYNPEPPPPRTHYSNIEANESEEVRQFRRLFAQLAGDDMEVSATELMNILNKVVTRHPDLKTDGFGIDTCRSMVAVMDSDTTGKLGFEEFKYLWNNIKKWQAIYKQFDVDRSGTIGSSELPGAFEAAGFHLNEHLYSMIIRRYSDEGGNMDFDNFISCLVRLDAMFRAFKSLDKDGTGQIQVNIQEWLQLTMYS


Assays:
[1] = system: calpains; settings: cited from earlier work
Text: This activity is mainly achieved by an ∼10^4-fold increase in the kcat without a significant change in the Km ([39]), by an unknown mechanism. Although this amidase-like calpain activity may be involved in as-yet-unknown physiological functions, there has been no further report on it.

[2] = target: T1, C1 (Merck Millipore #208712); test: Cleavage sites in whole proteins by N-terminal sequencing and MS/MS; assay type: biochemical; settings: C1 0.9 pmol, 100 mM Tris-HCl pH 7.5, 5 mM CaCl2, 30 °C, 20 min; peptide sequencing and LC-MS/MS
Description: Human heart troponin T2 (Merck 648484–100UGA, ca. 30 pmol) and horse myoglobin (Sigma-Aldrich, M0630, ca. 60 pmol) were digested with C1 (Merck Millipore #208712, 0.9 pmol) in 50 μl of 100 mM Tris-HCl (pH 7.5), 1 mM DTT, and 5 mM CaCl2 at 30 °C for 20 min. The digested samples were directly separated by SDS-PAGE, and the proteolyzed fragments were then blotted onto a PVDF membrane and subjected to peptide sequencing analysis (AproScience Inc., Tokushima, Japan). For sequence analysis by MS, the same digestion reactions were performed, terminated by adding a 3-fold volume of 7% TCA followed by incubation on ice for 30 min, spun (20,000 × g, 2 °C, 10 min), and the supernatant was collected. An aliquot of the soluble fraction was desalted and concentrated to a few μl using Zip-Tip C-18, and analyzed by Sciex 5600^+ with the Eksigent nanoLC system. The samples were analyzed in triplicate, the data were merged, and the peptide sequences were identified using ProteinPilot (Ver. 4.5) and Swiss-Prot DB (2015_08; 549,008 sequences; 195,692,017 aars) using the default parameters.

Row | Molecule | kcat/Km for hydrolysis of the NH2 group at the C terminus (amidase-like activity) [1] | calpain cleavage sites detected in the whole protein [2]
1 | RPKPQQFFGLM-NH2 [substance P] | 10^6 M^−1s^−1 | 
2 | horse myoglobin: horse myoglobin (Sigma-Aldrich, M0630; P68082) (protein, UniProt P68082 2-154, looked up) Myoglobin: GLSDGEWQQVLNVWGKVEADIAGHGQEVLIRLFTGHPETLEKFDKFKHLKTEAEMKASEDLKKHGTVVLTALGGILKKKGHHEAELKPLAQSHATKHKIPIKYLEFISDAIIHVLHSKHPGDFGADAQGAMTKALELFRNDIAAKYKELGFQG |  | Lys^51/Thr^52; also recorded: Gly^152/Phe^153
